Measured values as given in patent US4263325A, “β-Receptor blocking compounds and treatment of cardiovascular disorders therewith” (priority 1979, dated 1981).

Assays:
cardiac β-receptors [1] = target: T1, cardiac β-receptors (Felis catus, UniProt Q9TST6); assay: β-blockade of isoprenaline heart rate response, reserpinized anaesthetized cat; assay type: in vivo; settings: iv, i.v. test compound, isoproterenol 0.1 μg/kg i.v., dose reducing response to 50 percent
T1 construct: All compounds were thereby tested in anaeshtetized cats; from tissue; host or cells: heart of the living, reserpinized, anaesthetized cat
Procedure: (§1) The agents of the present invention were tested as regards their biological properties. All compounds were thereby tested in anaeshtetized cats (males and females weighing 2.5-3.5 kg) pretreated with reserpine (5 mg/kg body-weight administered intramusculary) about 16 hours before the experiments. The animals were pretreated with reserpine in order to eliminate the endogenous sympathetic control of heart rate and vascular smooth muscle tone. The cats were anaesthetized with pentobarbital (30 mg/kg bodyweight administered i.p. ) and artificially ventilated with room air. A bilateral vagotomy was performed in the neck. Blood pressure was obtained from a cannulated carotid artery and heart rate was registered from a cardiotachometer, triggered by the electrocardiogram (ECG). Vascular resistance in one hind leg was recorded by an autoperfusion technique. Intrinsic beta mimetic activity on the heart was seen as increased heart rate after drug administration. The test compounds were given intravenously in logarithmically increasing doses. Before the first dose and between each of the following doses (0.012-51.2 μmol/kg) of the test compound a dose of isoproterenol (0.1 μg/kg) was injected intravenously. Blockade of the heart rate and vascular resistance response to isoproterenol was calculated for each dose and expressed as percent decrease of the response obtained when isoproterenol was injected before any dose of the test compound. Percent blockade was then plotted against the logarithm of the dose. ED50 values i.e. doses producing a reduction of the original response to isoproterenol to 50 percent were estimated from these dose-response curves. At the end of each experiment high doses of isoprenaline were given in order to obtain the maximal heart rate response.

α-receptors = target: T2, α-receptors (Rattus norvegicus, UniProt P43140); assay: α-receptor blocking activity in isolated rat vas deferens (inhibition of noradrenaline contraction); settings: noradrenaline as agonist, high pA2 = high α-receptor blocking activity
T2 construct: from tissue; host or cells: isolated rat vas deferens
T2 sequence (P43140 1-466): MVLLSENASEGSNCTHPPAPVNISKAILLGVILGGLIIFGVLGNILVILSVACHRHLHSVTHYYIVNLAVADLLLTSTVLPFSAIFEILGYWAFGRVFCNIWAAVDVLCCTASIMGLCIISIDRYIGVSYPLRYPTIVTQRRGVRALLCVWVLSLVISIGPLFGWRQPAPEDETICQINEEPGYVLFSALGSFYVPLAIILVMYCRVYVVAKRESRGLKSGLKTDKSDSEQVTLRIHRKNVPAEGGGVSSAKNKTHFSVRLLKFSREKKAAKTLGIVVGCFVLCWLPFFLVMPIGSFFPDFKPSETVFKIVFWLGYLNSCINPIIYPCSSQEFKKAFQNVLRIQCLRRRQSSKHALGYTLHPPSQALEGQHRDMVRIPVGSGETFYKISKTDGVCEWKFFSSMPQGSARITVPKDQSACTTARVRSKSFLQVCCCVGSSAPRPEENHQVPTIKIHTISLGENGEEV
Procedure: α-receptor blocking activity was tested in isolated rat vas deferens. Noradrenaline administered to the organ bath induces a contraction in vas deferens by activating α-receptors. The ability of the test compounds to inhibit this noradrenaline response was studied. The α-receptor blocking activity was expressed as pA2 values. pA2 is defined as the negative logarithm of the concentration of an antagonist (in our case the test compounds) which leads to the fact that the dose of the agonist (in our case noradrenaline) has to be doubled in order to obtain the same effect of the agonist as that obtained without the antagonist present. Thus a high pA2 value indicates a high α-receptor blocking activity of a compound.

cardiac β-receptors [2] = target: T1, cardiac β-receptors; assay: Intrinsic beta mimetic activity on the heart (increase of heart rate), reserpinized anaesthetized cat; assay type: in vivo; settings: i.v.; for Intrinsic activity Δbeats/min: increase of heart rate after drug; for Intrinsic activity % of isoprenaline: maximal heart rate response obtained with high doses of isoprenaline
Procedure: as §1

vascular β-receptors = target: T3, vascular β-receptors (Felis catus, UniProt Q9TST5); assay: β-blockade of isoprenaline peripheral (vascular) resistance response, reserpinized anaesthetized cat, autoperfused hind leg; assay type: in vivo; settings: iv, i.v. test compound, isoproterenol 0.1 μg/kg i.v., dose reducing response to 50 percent
T3 construct: All compounds were thereby tested in anaeshtetized cats; from tissue; host or cells: hind-leg vasculature of the living, reserpinized, anaesthetized cat (autoperfused)
Procedure: as §1

T3 sequence (Q9TST5 whole entry, the tested form may be a part): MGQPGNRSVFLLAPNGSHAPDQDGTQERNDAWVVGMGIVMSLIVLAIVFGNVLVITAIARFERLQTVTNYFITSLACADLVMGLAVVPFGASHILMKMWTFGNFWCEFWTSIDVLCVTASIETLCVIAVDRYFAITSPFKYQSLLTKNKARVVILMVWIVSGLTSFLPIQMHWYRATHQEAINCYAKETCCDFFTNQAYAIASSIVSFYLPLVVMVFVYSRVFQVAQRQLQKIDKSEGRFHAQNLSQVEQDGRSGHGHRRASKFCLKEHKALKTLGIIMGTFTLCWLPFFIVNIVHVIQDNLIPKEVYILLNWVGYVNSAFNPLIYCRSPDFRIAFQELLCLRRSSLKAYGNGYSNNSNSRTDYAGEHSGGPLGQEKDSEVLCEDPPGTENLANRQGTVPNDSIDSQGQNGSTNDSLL
T1 sequence (Q9TST6 whole entry): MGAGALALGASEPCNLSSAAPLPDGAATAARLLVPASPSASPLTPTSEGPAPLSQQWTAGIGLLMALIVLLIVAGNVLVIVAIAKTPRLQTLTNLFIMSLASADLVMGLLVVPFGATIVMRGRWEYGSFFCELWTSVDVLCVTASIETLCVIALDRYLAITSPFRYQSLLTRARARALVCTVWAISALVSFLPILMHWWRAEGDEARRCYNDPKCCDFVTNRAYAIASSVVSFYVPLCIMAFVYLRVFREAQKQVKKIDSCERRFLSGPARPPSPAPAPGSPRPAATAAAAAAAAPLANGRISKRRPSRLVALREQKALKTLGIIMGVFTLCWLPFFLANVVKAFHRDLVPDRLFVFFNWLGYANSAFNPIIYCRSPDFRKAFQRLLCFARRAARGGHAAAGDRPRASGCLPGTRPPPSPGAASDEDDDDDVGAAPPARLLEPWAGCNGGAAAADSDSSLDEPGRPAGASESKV

Kb (α-receptors) | ED50 (vascular β-receptors) | SMILES | ED50 (cardiac β-receptors [1]) | Intrinsic activity Δbeats/min (cardiac β-receptors [2]) | Intrinsic activity % of isoprenaline (cardiac β-receptors [2])
126 nM | 0.02 µmol/kg | CCCc1ccccc1OCC(O)CNCCOc1ccc(O)cc1 (centres unmarked) [C3H7; pOH, 3-[2-(4-hydroxyphenoxy)-ethylamino]-1-o-propylphenoxy-propanol-2] | 0.02 µmol/kg | 0 beats/min | 0 % of isoprenaline
100 nM | 11 µmol/kg | COc1ccccc1OCCNCC(O)COc1ccccc1C (centres unmarked) [CH3; 2-OCH3, 3-[2-(2methoxyphenoxy)-ethylamino]-1-o-methylphenoxy-propanol-2] | 4.5 µmol/kg | 8 beats/min | 8 % of isoprenaline
1000 nM | 17 µmol/kg | Cc1ccccc1OCC(O)CNCCOc1ccccc1O (centres unmarked) [CH3; 2-OH, 3-[2-(2-hydroxyphenoxy)-ethylamino]-1-o-methylphenoxy-propanol-2] | 0.6 µmol/kg | 30 beats/min | 29 % of isoprenaline
1000 nM | 5.8 µmol/kg | COc1ccc(OCCNCC(O)COc2ccccc2C)cc1OC (centres unmarked) [CH3; 3,4-diOCH3, 3-[2-(3,4-dimethoxyphenoxy)-ethylamino]-1-o-methylphenoxy-propanol-2] | 1.5 µmol/kg | 8 beats/min | 11 % of isoprenaline
1580 nM | 8.2 µmol/kg | COc1ccc(OCCNCC(O)COc2ccccc2C)cc1 (centres unmarked) [CH3; 4-OCH3, 3-[2-(4-methoxyphenoxy)-ethylamino]-1-o-methylphenoxy-propanol-2] | 0.5 µmol/kg | 17 beats/min | 22 % of isoprenaline
501 nM | 0.05 µmol/kg | OCc1ccccc1OCC(O)CNCCOc1ccc(O)cc1 (centres unmarked) [HOCH2; pOH, 3-[2-(4-hydroxyphenoxy)-ethylamino]-1-o-hydroxymethylphenoxy-propanol-2] | 0.02 µmol/kg | 17 beats/min | 
